Results taken from patent US11319289B2, “5-hydroxy pyridine-based compound for use as P2X1 and P2X3 receptor antagonist and pharmaceutical composition comprising same” (GWANGJU INSTITUTE OF SCIENCE AND TECHNOLOGY, priority 2017, dated 2022).
“Also recorded” adds a separate entry of the source.

Columns and labels:
[1] = Plasma protein binding by rapid equilibrium dialysis, rat; assay type: in vitro ADME; details: plasma (50% in PBS), pH 7.4, read-out: Plasma protein binding rate, Rat (converted)
Protocol: Plasma protein binding was measured by rapid equilibrium dialysis (RED). A DMSO stock solution of the compounds was prepared at a concentration of 10 mM and diluted to a concentration of […] with 50% plasma in phosphate buffered saline (PBS, pH 7.4). Plasma samples (100 μL) and PBS (300 μL) were added to the sample chamber and the buffer chamber, respectively, after which the RED device was turn on and the samples were incubated in a shaking incubator at 37° C. for 4 hours. After dialysis, 50 μl aliquots were collected from each side of the chamber. 50 μl of blank plasma was added to the buffer sample, and 50 μl of PBS was also added to the plasma sample. 200 μL of acetonitrile containing an internal standard was added to each sample. The samples were centrifuged at 3200 g for 20 minutes at 4° C., and the supernatants were obtained and analyzed by an LC-MS/MS system. The plasma protein binding rate was calculated as follows: Free form (%)=(Buffer chamber/Plasma chamber)×100 Bound form (%)=100−Free form (%).

[2] = system: neuropathic pain (NeP) animal models; experiment: Efficacy in neuropathic pain (NeP) animal models, model not specified; assay type: in vivo, rat
Protocol: 3-1. Evaluation of In Vivo Efficacy
The antiallodynic effects (mechanical allodynia) were evaluated using rats according to a previously reported protocol. In order to evaluate the withdrawal threshold, rats (naive, SNL and CIPN) were placed on a plastic mesh floor of individual plastic cages. The rats were allowed to acclimate to the environment for 30 minutes and examined after intrathecal or intravenous administration to the caudal vein. The control group received the same volume of vehicle (intrathecal administration of saline or DMSO, intravenous administration of DMSO:PEG:PBS=1:6:3 v/v %) as the experimental groups. Evaluation of the mechanical withdrawal threshold was measured in responses to the application of calibrated von Frey filaments (Stoelting, Wood Dale, Ill., USA) to the hind paw of the rats through the holes on the mesh floor underneath the cage using the ‘up and down method’. A series of eight von Frey filaments (0.4, 0.7, 1.2, 2.0, 3.6, 5.5, 8.5, and 15 g) was applied perpendicular to the sole of the hind paw for 5 seconds while the head was bent. Active withdrawal or flinching of the paw was considered as a positive reaction. The absence of response in the rats, when a pressure was applied to 15 g von Frey filament, was used as a cut-off value. Only rats with definite allodynia (i.e., mechanical withdrawal threshold: less than 4 g after SNL or less than 5 g after CIPN) were tested. The rats after termination of the experiments were euthanized through an overdose of sevoflurane. The withdrawal threshold data for the von Frey filament test was calculated as % MPE (maximum possible effect) based on the following Calculation Equation: % MPE=[(Post-drug threshold−Post-injured baseline threshold)/(Cutoff threshold−post-injured baseline threshold)×100]. Dose-response data were analyzed using Scheffe's post hoc test and one-way analysis of variance (ANOVA).

[3] = Metabolic stability in microsomes, human; assay type: in vitro ADME; details: 30 min
rats = experiment: Behavioral test (righting, placing-stepping, pinna and corneal reflexes); assay type: in vivo, rat; details: maximum dose, intrathecal or intravenous administration
Protocol: 4-1. Behavioral Efficacy Test Method
Additional rats received the highest doses of drugs used to evaluate behavioral changes at 5, 10, 20, 30, 40, 50, and 60 min after intrathecal or intravenous administration to caudal vein. Motor functions were examined using the righting and placing-stepping reflexes. The righting reflex was evaluated by an immediate coordinated twisting of the body to an upright position when placing the rat horizontally with its back on the table. The placing-stepping reflex was induced by drawing the dorsum of hind paw across the edge of the table. Rats normally attempt to put their paws forward into a position for walking. Pinna and corneal reflexes were also assessed and judged as present or absent. Other abnormal behaviors, such as serpentine movement or tremors, were also evaluated.

[4] = molecular target: T1, human P2X3 receptor (hP2X3) (Homo sapiens, UniProt P56373); experiment: Two-electrode voltage clamp assay, recombinant hP2X3 receptor in Xenopus oocytes; assay type: cell-based; details: for IC50: 2 μM ATP-evoked current, Xenopus oocytes, mean±SEM n≥3 (footnote d)
T1 construct: expressed in transfected cells; host or cells: Xenopus oocytes (cRNA microinjection)
T1 sequence (P56373 1-397): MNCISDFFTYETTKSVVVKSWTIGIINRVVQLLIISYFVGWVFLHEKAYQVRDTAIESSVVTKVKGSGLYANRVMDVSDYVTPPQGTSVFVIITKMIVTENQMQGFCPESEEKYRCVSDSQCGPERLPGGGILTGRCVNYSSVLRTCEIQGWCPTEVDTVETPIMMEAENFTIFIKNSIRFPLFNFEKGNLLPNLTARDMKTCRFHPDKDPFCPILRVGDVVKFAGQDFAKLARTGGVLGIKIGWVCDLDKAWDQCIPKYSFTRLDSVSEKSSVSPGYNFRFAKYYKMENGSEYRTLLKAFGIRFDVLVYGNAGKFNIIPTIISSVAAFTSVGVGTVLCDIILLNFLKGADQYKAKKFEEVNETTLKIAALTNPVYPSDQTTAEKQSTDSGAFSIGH
Protocol: 1-1. Two-Electrode Voltage Clamp Assay for Recombinant mP2X1 and hP2X3 Receptors
Xenopus oocytes were isolated and incubated with 270 U/mg of collagenase at 23 to 24° C. for 1.5 hours. Defolliculated oocytes were kept in Barth's solution at 18° C. After 1 day, the defolliculated oocytes were each microinjected cytosolically with mP2X1 and human P2X3 receptor cRNA ([…], 1 μg/mL), incubated for 24 hours at 18° C. in Barth's solution. The cRNA-injected oocytes were kept for 12 days at 4° C. ATP-activated membrane currents (Vh=−70 mV) were recorded from the cRNA-injected oocytes using the two-electrode voltage clamp technique (Axoclamp 2B amplifier). Voltage recording ([…] tip resistance) and current-recording microelectrodes (5 MΩ tip resistance) were filled with 3.0 M KCl. Oocytes were placed in an electrophysiological chamber continuously superfused with Ringer's solution (5 mL/min, at 18° C.) containing 110 mM NaCl, 2.5 mM KCl, 5 mM HEPES and 1.8 mM BaCl2, with pH adjusted to 7.5. To induce an evoked current, 2 μM ATP was superfused for 60 to 120 seconds and then washed for 20 min. For data analysis, the ATP-evoked current was normalized at pH 7.5. The compounds were introduced to the fixed oocytes 20 minutes prior to ATP exposure in the electrophysiological chamber. IC50 values (the concentration of the compound required to inhibit the ATP response by 50%) were determined by Hill plots designed using the Chemical Formula: log(I/Imax−1), where I is the current evoked by ATP in the presence of an antagonist. Data are presented as mean±SEM (n≥3) from different batches of oocytes.
In order to investigate the structure-activity relationship (SAR) of the compounds synthesized in the present invention, the antagonistic activity was evaluated by a two-electrode voltage clamp (TEVC) assay in Xenopus oocytes expressing the recombinant mP2X1 or hP2X3, respectively. The hP2X7R antagonistic activity was assessed using an ethidium ion accumulation assay in human HEK293 cells stably expressing the recombinant human P2X7R.

## CCCc1nc(Cc2cccc(Oc3ccccc3)c2)c(C)c(C(=O)O)c1O [Compound 29, 3-Hydroxy-5-methyl-6-(3-phenoxybenzyl)-2-propylisonicotinic acid]
[1]
  fraction unbound at 4 h, 5 µM: 0.002
[2]; NeP animal models, i.p. and i.v.
  antiallodynic effect upon intraperitoneal and intravenous administration: no antiallodynic effect; also recorded: no pharmacological activity was observed; also recorded: did not provide an antiallodynic effect
[2]; NeP rats
  antiallodynic effect upon intramedullary administration: potent antiallodynic effect
[3]
  Metabolic stability, microsomes, Human: 3 % remaining after 30 min
rats
  abnormal behavior changes: no obvious abnormal behavior changes were observed
  pinna and corneal reflexes: present
  righting and position-stepping reflexes: normal
[4]
  IC50: 245 nM

## CCCc1nc(CCc2ccc(OC)cc2)c(C(=O)O)c(C(=O)O)c1O [Compound 13d, 5-Hydroxy-2-(4-methoxyphenethyl)-6-propylpyridine-3,4-dicarboxylic acid]
[2]; early animal experiments
  in vivo efficacy in early animal experiments: weak in vivo efficacy
[4]
  IC50: 93 nM
[4]; hP2X3R versus mP2X1R
  selectivity for hP2X3R to mP2X1R: about 100 fold

## CCCc1nc(Cc2cccc(Oc3ccccc3)c2)c(C)c(C(=O)OC)c1O [Compound 28, Methyl 3-hydroxy-5-methyl-6-(3-phenoxybenzyl)-2-propylisonicotinate]
[1]
  fraction unbound at 4 h, 5 µM: 0.675
[3]
  Metabolic stability, microsomes, Human: 0 % remaining after 30 min
rats
  abnormal behavior changes: no obvious abnormal behavior changes were observed
  pinna and corneal reflexes: present
  righting and position-stepping reflexes: normal
